For assay [1], the system named is 4 h fasted mice. The experiment in a line: Blood glucose after single administration of peptides. It is filed as in vivo. Here is the method: Differences were considered statistically significant at p<0.05. Data analysis was carried out with GraphPad software (GraphPad Prism).
Assay [2] deals with T1, Human GIPR (Homo sapiens, UniProt P48546).
T1 construct: expressed in transfected cells; host or cells: CHO-K1, stably transfected
T1 sequence (P48546 22-466): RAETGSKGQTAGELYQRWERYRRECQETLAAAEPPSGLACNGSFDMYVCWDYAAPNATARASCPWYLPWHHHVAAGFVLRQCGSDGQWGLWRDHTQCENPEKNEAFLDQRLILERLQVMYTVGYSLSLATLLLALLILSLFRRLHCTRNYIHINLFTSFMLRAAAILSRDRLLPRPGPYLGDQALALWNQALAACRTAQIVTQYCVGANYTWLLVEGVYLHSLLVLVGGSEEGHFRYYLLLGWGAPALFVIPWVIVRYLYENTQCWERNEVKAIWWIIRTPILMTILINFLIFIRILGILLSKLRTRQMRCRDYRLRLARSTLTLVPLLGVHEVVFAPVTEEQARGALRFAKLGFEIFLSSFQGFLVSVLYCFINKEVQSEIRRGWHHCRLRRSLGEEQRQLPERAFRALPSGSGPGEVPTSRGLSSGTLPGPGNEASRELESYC
As to the kind of experiment: GPCR cell-based cAMP assay, human GIP receptor. To be noted: stably transfected CHO-Kl cells, 0.1% casein. As for the experimental part: (§1) Experimental protocol: Cells were seeded in a total volume of 20 μL into white walled, 384-well microplates and incubated at 37° C. overnight prior to testing. Prior to testing cell plating media was exchanged with 10 μL of Assay buffer (HBSS+10 mM HEPES). All compounds were run in assay buffer containing 0.1% casein. Briefly, intermediate dilution of sample stocks was performed to generate 4× sample in assay buffer. 5 μL of 4× sample was added to cells and incubated at 37° C. for 30 minutes. Final assay vehicle concentration was 1%. […] Microplates were read following signal generation with PerkinElmer Envision instrument for chemiluminescent signal detection.
(§2) The results are expressed as a percent efficacy relative to the maximum response of the control ligand.
A general note: Cyclic AMP is a second messenger, typically raised through Gs and lowered through Gi signalling.

Assay [3] addresses T2, Human Calc/RAMP3R (AMY3) (Homo sapiens, UniProt O60896+P30988).
T2 construct: expressed in transfected cells; host or cells: CHO-K1, stably transfected
T2 sequence (P30988 25-474): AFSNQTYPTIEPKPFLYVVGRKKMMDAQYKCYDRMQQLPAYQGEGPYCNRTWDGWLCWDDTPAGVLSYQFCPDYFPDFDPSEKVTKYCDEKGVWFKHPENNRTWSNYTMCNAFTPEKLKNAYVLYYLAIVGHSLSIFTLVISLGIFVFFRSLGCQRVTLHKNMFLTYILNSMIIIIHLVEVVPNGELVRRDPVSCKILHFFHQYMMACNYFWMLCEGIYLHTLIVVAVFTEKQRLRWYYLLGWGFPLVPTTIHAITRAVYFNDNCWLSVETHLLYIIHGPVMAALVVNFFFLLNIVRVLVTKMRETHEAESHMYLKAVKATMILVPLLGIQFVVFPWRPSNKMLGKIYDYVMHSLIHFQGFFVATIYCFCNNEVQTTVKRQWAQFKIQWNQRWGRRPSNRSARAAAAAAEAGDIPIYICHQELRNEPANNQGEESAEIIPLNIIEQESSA
T2 sequence (O60896 24-148 partner): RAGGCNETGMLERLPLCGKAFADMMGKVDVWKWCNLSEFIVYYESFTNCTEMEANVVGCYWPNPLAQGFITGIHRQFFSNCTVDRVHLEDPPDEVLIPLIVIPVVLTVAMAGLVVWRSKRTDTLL
The experiment in a line: GPCR cell-based cAMP assay, human AMY3 receptor. To be noted: stably transfected CHO-Kl cells, 0.1% casein. Here is the method:
as §1, §2

In assay [4] the target is Human GLP-1R (Homo sapiens, UniProt P43220). As to the kind of experiment: GPCR cell-based cAMP assay, human GLP-1 receptor. Set-up: expressed in transfected cells; host or cells: CHO-K1, stably transfected. Conditions: stably transfected CHO-Kl cells, 0.1% casein. Here is the method: as §1, §2
The target of assay [5] is T3, Human CalcitoninR (Homo sapiens, UniProt P30988).
T3 construct: expressed in transfected cells; host or cells: CHO-K1, stably transfected
T3 sequence (P30988 25-474): T2 sequence (P30988 25-474)
As to the kind of experiment: GPCR cell-based cAMP assay, human calcitonin receptor. Conditions: stably transfected CHO-Kl cells, 0.1% casein. As for the experimental part:
as §1, §2

Where a name gives a salt, the structure may show the parent alone. Numbered stars: 1 amine (or outer) side, 2 acyl side, 3 side chain; on linkers, the order of the positions; unused ones are H or OH. Bridge positions count the residues as written; N and C are the ends. Square brackets hold non-standard residues; d marks the D form. Side chains are listed from the residue outwards. * marks the point of attachment. C20 diacid = O=C(O)CCCCCCCCCCCCCCCCCCC(=O)*; C18 diacid = O=C(O)CCCCCCCCCCCCCCCCC(=O)*; γGlu = O=C(O)[C@H](CCC(=O)[*:2])N[*:1]; AEEA = NCCOCCOCC(=O)O; Aib = CC(C)(N)C(=O)O

Results on 7 molecules are retold here after patent US20240059753A1, “COMPOSITIONS INCLUDING MULTI-AGONIST PEPTIDES AND METHODS OF MANUFACTURE AND USE” (Pep2Tango Therapeutics Inc., priority 2022, published 2024).

Sequence of Human GLP-1R (P43220 24-463): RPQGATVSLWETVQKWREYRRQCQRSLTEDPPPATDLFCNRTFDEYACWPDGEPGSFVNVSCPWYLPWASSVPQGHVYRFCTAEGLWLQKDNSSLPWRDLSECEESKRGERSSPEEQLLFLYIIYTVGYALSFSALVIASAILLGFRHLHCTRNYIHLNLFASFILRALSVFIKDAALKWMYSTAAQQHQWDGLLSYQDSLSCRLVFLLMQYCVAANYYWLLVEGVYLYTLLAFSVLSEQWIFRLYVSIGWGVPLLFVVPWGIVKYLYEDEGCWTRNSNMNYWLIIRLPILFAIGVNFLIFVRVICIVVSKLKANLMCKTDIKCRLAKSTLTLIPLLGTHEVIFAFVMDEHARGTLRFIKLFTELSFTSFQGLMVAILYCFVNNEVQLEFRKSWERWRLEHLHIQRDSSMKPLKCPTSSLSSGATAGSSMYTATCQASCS

Turning to Cagrilintide [reference compound], the “Blood glucose, 120 min” value in assay [1] (4 h fasted mice, single s.c. 10 nmol/Kg, 120 min after injection, mean ± SEM) came to 189.7 ± 5.52 mg/dL. For the same molecule, in assay [1] (4 h fasted mice, single s.c. 10 nmol/Kg, 240 min after injection, mean ± SEM), the “Blood glucose, 240 min” value turned out to be 164.6 ± 6.48 mg/dL. Further, the “Blood glucose, Time 0” value in assay [1] (4 h fasted mice, single s.c. 10 nmol/Kg, Time 0 (baseline), mean ± SEM) amounted to 169.0 ± 3.45 mg/dL. For the same molecule, in assay [1] (single s.c. 10 nmol/kg), the “Significantly reduced blood glucose at 120 min and 240 min compared to time 0” value is “not”.
For the molecule “Y[Aib]EGTFTSDYSI[Aib]LDKIAQQAFVQWLIAGGPSSGAPPPSCNTATCVLGRLSQELHRLQTYPRTNTGK([AEEA-AEEA-γGlu-C18 diacid])NTY-NH2 (disulfide 40-45 (inferred)) [SEQ ID NO. 45, Y-Aib-E-G-T-F-T-S-D-Y-S-I-Aib-LDKIAQQAFVQWLIAGGPSSGAPPPSCNTATCVLGRLSQELHRLQTYPRTNTGK*-N-T-Y-NH2-acetate salt (wherein K* is Lys(AEEAc-AEEAc-γ-Glu-17-carboxyheptadecanoyl))]”, the concentration for a half-maximal effect (EC50) in assay [2] is 41 pM; in assay [3] it was 333 pM; in assay [4], 416 pM; in assay [5], 106 pM.
Taken in the same sequence, the figures for “Y[Aib]EGTFTSDYSI[Aib]LDKIAQQAFVQWLIAGGPSASHLSTAVLGK([AEEA-AEEA-γGlu-C18 diacid])LS[Aib]ELHKLEDYPRTDVGAESP-NH2 [SEQ ID NO. 57, Y-Aib-E-G-T-F-T-S-D-Y-S-I-Aib-LDKIAQQAFVQWLIAGGPSASHLSTAVLGK*-L-S-Aib-E-L-H-K-L-E-D-Y-P-R-T-D-V-G-A-E-S-P-NH2-acetate salt (wherein K* = Lys(AEEAc-AEEAc-γ-Glu-17-carboxyheptadecanoyl))]” were 47 pM, 152 pM, 724 pM and 44 pM.
As to “Y[Aib]EGTFTSDYSI[Aib]LDKIAQQAFVQWLIAGGPSSGAPPPSKCNTATCVLGRLSQELHRLQTYPRTNTK([AEEA-AEEA-γGlu-C18 diacid])SNTY-NH2 (disulfide 41-46 (inferred)) [SEQ ID NO. 52, Y-Aib-E-G-T-F-T-S-D-Y-S-I-Aib-LDKIAQQAFVQWLIAGGPSSGAPPPSKCNTATCVLGRLSQELHRLQTYPRTNTK*-S-N-T-Y-NH2-acetate salt (wherein K* is Lys(AEEAc-AEEAc-γ-Glu-17-carboxyheptadecanoyl))]”, the concentration for a half-maximal effect (EC50) in assay [2] was 147 pM; in assay [3] it was 1240 pM; in assay [4] it was 590 pM; in assay [5] it was 694 pM.
Regarding “Y[Aib]EGTFTSDYSI[Aib]LDKIAQQAFVQWLIAGGPSKCNTATCATQK([AEEA-AEEA-γGlu-C18 diacid])LAEFLRHSSNNFGPILPPTNVGSHTP-NH2 (disulfide 34-39 (inferred)) [SEQ ID NO. 56, Y-Aib-E-G-T-F-T-S-D-Y-S-I-Aib-LDKIAQQAFVQWLIAGGPSKCNTATCATQK*-LAEFLRHSSNNFGPILPPTNVGSHTP-NH2-acetate salt (wherein K* = Lys(AEEAc-AEEAc-γ-Glu-17-carboxyheptadecanoyl))]”, the EC50 in assay [2] was found to be 29 pM; in assay [4], 1000 pM.
For `CC[C@H](C)[C@H](NC(=O)[C@H](CC(C)C)NC(=O)[C@H](Cc1c[nH]c2ccccc12)NC(=O)[C@H](CCC(N)=O)NC(=O)[C@@H](NC(=O)[C@H](Cc1ccccc1)NC(=O)[C@H](C)NC(=O)[C@H](CCC(N)=O)NC(=O)[C@H](CCC(N)=O)NC(=O)[C@H](C)NC(=O)[C@@H](NC(=O)[C@H](CCCCN)NC(=O)[C@H](CC(=O)O)NC(=O)[C@H](CC(C)C)NC(=O)C(C)(C)NC(=O)[C@@H](NC(=O)[C@H](CO)NC(=O)[C@H](Cc1ccc(O)cc1)NC(=O)[C@H](CC(=O)O)NC(=O)[C@H](CO)NC(=O)[C@@H](NC(=O)[C@H](Cc1ccccc1)NC(=O)[C@@H](NC(=O)CNC(=O)[C@H](CCC(=O)O)NC(=O)C(C)(C)NC(=O)[C@@H](N)Cc1ccc(O)cc1)[C@@H](C)O)[C@@H](C)O)[C@@H](C)CC)[C@@H](C)CC)C(C)C)C(=O)N[C@@H](C)C(=O)NCC(=O)NCC(=O)N1CCC[C@H]1C(=O)N[C@@H](CO)C(=O)N[C@@H](CCCCNC(=O)COCCOCCNC(=O)COCCOCCNC(=O)CC[C@H](NC(=O)CCCCCCCCCCCCCCCCC(=O)O)C(=O)O)C(=O)N[C@H]1CSSC[C@@H](C(=O)N[C@@H](C)C(=O)N[C@H](C(=O)N[C@@H](CCC(N)=O)C(=O)N[C@@H](CCCNC(=N)N)C(=O)N[C@@H](CC(C)C)C(=O)N[C@@H](C)C(=O)N[C@@H](CCC(=O)O)C(=O)N[C@@H](Cc2ccccc2)C(=O)N[C@@H](CC(C)C)C(=O)N[C@@H](CCCNC(=N)N)C(=O)N[C@@H](Cc2c[nH]cn2)C(=O)N[C@@H](CO)C(=O)N[C@@H](CO)C(=O)N[C@@H](CC(N)=O)C(=O)N[C@@H](CC(N)=O)C(=O)N[C@@H](Cc2ccccc2)C(=O)NCC(=O)N2CCC[C@H]2C(=O)N[C@H](C(=O)N[C@@H](CC(C)C)C(=O)N2CCC[C@H]2C(=O)N2CCC[C@H]2C(=O)N[C@H](C(=O)N[C@@H](CC(N)=O)C(=O)N[C@H](C(=O)NCC(=O)N[C@@H](CO)C(=O)N[C@@H](Cc2c[nH]cn2)C(=O)N[C@H](C(=O)N2CCC[C@H]2C(N)=O)[C@@H](C)O)C(C)C)[C@@H](C)O)[C@@H](C)CC)[C@@H](C)O)NC(=O)[C@H]([C@@H](C)O)NC(=O)[C@H](C)NC(=O)[C@H]([C@@H](C)O)NC(=O)[C@H](CC(N)=O)NC1=O` [SEQ ID NO. 55, Y-Aib-E-G-T-F-T-S-D-Y-S-I-Aib-LDKIAQQAFVQWLIAGGPSK*-CNTATCATQRLAEFLRHSSNNFGPILPPTNVGSHTP-NH2-acetate salt (wherein K* = Lys(AEEAc-AEEAc-γ-Glu-17-carboxyheptadecanoyl))], the EC50 was 19 pM in assay [2], 46100 pM in assay [3], 324 pM in assay [4] and 44200 pM in assay [5].

B1: Y-Aib-E-G-T-F-T-S-D-Y-S-I-Aib-LDKIAQQAFVQWLIAGGPSSGAPPPSCNTATCVLGRLSQELHRLQTYPRTNTGK*-N-T-Y-NH2-acetate salt (wherein K* = … (peptide)
chain: Y[Aib]EGTFTSDYSI[Aib]LDKIAQQAFVQWLIAGGPSSGAPPPSCNTATCVLGRLSQELHRLQTYPRTNTGK([γGlu-γGlu-C20 diacid])NTY-NH2
modifications: also: acetate salt
For the molecule B1, the EC50 in assay [2] was 11 pM; in assay [3], 218 pM; in assay [4], 854 pM; in assay [5], 388 pM.

By EC50 is commonly meant the concentration giving half of the maximal effect.
